Results: ChEMBL document CHEMBL1151130, “Oxygenated Furanosesterterpene Tetronic Acids from a Sponge of the Genus Ircinia” (J Nat Prod, 1988)
Active and inactive are the calls of the source. No cut-off for these calls is given here.

What was measured:
Human alphaherpesvirus 1 [1] = test: Antiviral activity against HSV1 infected in […] cells at 2 ug/disk; assay type: functional, organism-based
Poliovirus 1 [2] = test: Antiviral activity against Poliovirus type 1 infected in […] cells at 2 ug/disk; assay type: functional, organism-based
[3] = Cytotoxicity against […] cells at 2 ug/disk; assay type: cell-based
Poliovirus 1 [4] = test: Antiviral activity against Poliovirus type 1 infected in […] cells at 20 ug/disk; assay type: functional, organism-based
Human alphaherpesvirus 1 [5] = test: Antiviral activity against HSV1 infected in […] cells at 20 ug/disk; assay type: functional, organism-based

SMILES | Activity (Human alphaherpesvirus 1 [1]) | Activity (Poliovirus 1 [2]) | Activity [3] | Activity (Poliovirus 1 [4]) | Activity (Human alphaherpesvirus 1 [5])
COC1=C(C)C(=O)O/C1=C\[C@@H](C)CCC/C(C)=C/C/C=C(\C)CCC(=O)c1ccoc1 | inactive | inactive | – | – | –
CC1=C(O)/C(=C/[C@@H](C)CCC/C(C)=C/CC/C(C)=C/CCc2ccoc2)OC1=O | – | – | Toxic | – | –
CC1=C(O)/C(=C/[C@@H](C)CCC/C(C)=C/CCC(C)(O)CCCc2ccoc2)OC1=O (stereo partly drawn) | – | – | – | inactive | inactive
C=C(CC/C=C(\C)CCC(=O)c1ccoc1)CCC[C@H](C)/C=C1\OC(=O)C(C)=C1OC | inactive | inactive | – | – | –
COC1=C(C)C(=O)O/C1=C\[C@@H](C)CCC/C(C)=C/CCC(C)(O)CCCc1ccoc1 (stereo partly drawn) | – | – | – | inactive | inactive
COC1=C(C)C(=O)O/C1=C\[C@@H](C)CCC/C(C)=C/CC/C(C)=C/CCc1ccoc1 | – | – | – | inactive | inactive
COC1=C(C)C(=O)O/C1=C\[C@@H](C)CCC/C(C)=C/CC/C(C)=C/CC(=O)c1ccoc1 | inactive | inactive | – | – | –
